Where two headings read alike, the source gives them in different places.
Experiments:
[1] = biological target: T1, CYP3A4 (Homo sapiens, UniProt P08684); assay: Test Example 8: CYP3A4 (MDZ) MBI test; type: in vitro ADME; settings: pooled human liver microsomes; substrate 10 µmol/L MDZ; pre-reaction 0 or 30 minutes; compound 0.83, 5, 10, 20 µmol/L
T1 construct: pooled human liver microsomes by 1-hydroxylation reaction of midazolam (MDZ) as a marker reaction; from tissue; host or cells: pooled human liver microsomes
T1 sequence (P08684 whole entry): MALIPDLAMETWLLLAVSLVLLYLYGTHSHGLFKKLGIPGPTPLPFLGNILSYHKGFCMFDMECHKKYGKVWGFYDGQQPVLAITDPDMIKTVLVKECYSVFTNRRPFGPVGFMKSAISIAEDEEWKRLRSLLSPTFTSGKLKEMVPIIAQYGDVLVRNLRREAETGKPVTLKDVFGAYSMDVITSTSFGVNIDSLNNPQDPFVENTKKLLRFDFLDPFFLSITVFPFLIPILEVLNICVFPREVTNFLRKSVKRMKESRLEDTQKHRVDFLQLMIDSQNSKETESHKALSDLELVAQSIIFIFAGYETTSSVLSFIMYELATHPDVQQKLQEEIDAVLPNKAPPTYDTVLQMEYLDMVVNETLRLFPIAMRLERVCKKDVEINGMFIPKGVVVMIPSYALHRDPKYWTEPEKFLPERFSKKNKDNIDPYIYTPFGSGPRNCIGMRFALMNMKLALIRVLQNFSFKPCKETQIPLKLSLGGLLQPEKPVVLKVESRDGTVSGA
Method: CYP3A4 (MDZ) MBI test is a test of investigating MBI potential on CYP3A4 by the enhancement of inhibitory degree of a metabolic reaction caused by the compound of the present invention. CYP3A4 inhibition is evaluated using pooled human liver microsomes by 1-hydroxylation reaction of midazolam (MDZ) as a marker reaction.
The reaction conditions are as follows: substrate, 10 µmol/L MDZ; pre-reaction time, 0 or 30 minutes; substrate reaction time, 2 minutes; reaction temperature, 37°C; pooled human liver microsomes, at pre-reaction 0.5 mg/mL, at reaction 0.05 mg/mL (at 10-fold dilution); concentrations of the compound of the present invention, at pre-reaction 0.83, 5, 10, 20 µmol/L (4 points).
Pooled human liver microsomes and a solution of the compound of the present invention in K-Pi buffer (pH 7.4) as a pre-reaction solution are added to a 96-well plate at the composition of the pre-reaction. A part of pre-reaction solution is transferred to another 96-well plate, and diluted 10-fold by K-Pi buffer containing a substrate. NADPH as a cofactor is added to initiate a reaction as a marker reaction (without preincubation). After a predetermined time of the reaction, methanol/acetonitrile=1/1 (V/V) solution is added to stop the reaction. NADPH is also added to the remaining pre-reaction solution to initiate the pre-reaction (with pre-reaction), and after the pre-reaction for a predetermined time, a part is transferred to and diluted 10-fold by K-Pi buffer containing a substrate to initiate the reaction as a marker reaction. After a predetermined reaction time, the reaction is stopped by adding a methanol/acetonitrile = 1/1 (V/V) solution. Each plate where the indicator reaction has been performed is centrifuged at 3000 rpm for 15 minutes. Then, midazolam 1-hydroxide in the centrifuged supernatant is quantified by LC/MS/MS.
The sample adding DMSO as a solvent to a reaction system instead of a solution dissolving the compound of the present invention is adopted as a control (100 %). Remaining activity (%) is calculated at each concentration of the compound of the present invention compared to a control, and IC value is calculated by reverse-presumption by a logistic model using a concentration and an inhibition rate. Shifted IC value is calculated as "IC of preincubation at 0 minutes/ IC of preincubation at 30 minutes". When a shifted IC is 1.5 or more, this is defined as positive. When a shifted IC is 1.0 or less, this is defined as negative.

[2] = biological target: T2, human recombinant 5-HT2A receptor (Homo sapiens, UniProt P28223); assay: Test Example 1: 5-HT2A receptor binding inhibition test ([3H]-Ketanserin; non-specific ligand Serotonin HCl)
T2 construct: expressed in transfected cells; host or cells: Jump-In HEK cells (membrane preparation)
T2 sequence (P28223 whole entry): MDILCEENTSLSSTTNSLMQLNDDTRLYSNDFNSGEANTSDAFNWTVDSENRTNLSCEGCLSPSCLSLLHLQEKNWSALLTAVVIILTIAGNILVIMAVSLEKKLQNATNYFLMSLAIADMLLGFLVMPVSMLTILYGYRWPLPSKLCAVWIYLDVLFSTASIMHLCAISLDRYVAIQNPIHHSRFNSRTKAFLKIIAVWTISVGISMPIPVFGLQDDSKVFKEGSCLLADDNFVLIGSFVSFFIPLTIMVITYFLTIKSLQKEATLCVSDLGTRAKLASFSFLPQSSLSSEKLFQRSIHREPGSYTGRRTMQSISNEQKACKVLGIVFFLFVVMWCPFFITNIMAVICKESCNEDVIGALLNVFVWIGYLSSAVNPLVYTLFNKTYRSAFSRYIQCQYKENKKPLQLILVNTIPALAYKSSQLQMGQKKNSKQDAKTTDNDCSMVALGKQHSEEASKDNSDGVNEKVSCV
Method: The Kd value is calculated when the lot of the cell membrane is changed. 1 mmol/L non-specific binding calculating compound dissolved in DMSO or DMSO is previously dispensed to the microplate by 0.5 µL, and the cell membrane is diluted with an Assay buffer. The radioactive ligand solution is diluted step by step, and counts are checked with a liquid scintillator. The Assay buffer containing diluted cell membranes is dispensed by 50 µL/well into the microplate. The radioactive ligand solution is then dispensed by 50 µL/well into the microplate and the plate is sealed. The microplate is allowed to stand for 1.5 hours at room temperature (25°C). During this time, 50 mmol/L Tris-HCl (pH 7.4) is dispensed by 50 µL/well on the GF/B UniFilter plate and allowed to stand at 4°C for 1 hour or longer. Thereafter, filtration is performed with a Cell Harvester (PerkinElmer). The radioactive ligand solution is dispensed by 10 µL/well into empty wells of the GF/B UniFilter plate. After drying the GF/B UniFilter plate at room temperature, MicroScinti20 is dispensed by 50 µL/well into the GF/B UniFilter plate, and the plate is sealed. GF/B UniFilter plate is allowed to stand at room temperature overnight. The radioactivity of [^3H]-Ketanserin bound to the 5-HT2A receptor is measured using Microbeta2 (PerkinElmer) at a measurement time of 1 min/well. The Saturation curve is drawn from the measured value, and the Kd value is calculated from the slope of the Scatchard Plot.
A compound solution dissolved in DMSO is dispensed to a microplate by 0.5 µL, and a cell membrane and a hot ligand are each diluted with an Assay buffer. The Assay buffer containing diluted cell membrane is then dispensed by 50 µL/well into the microplate. The radioactive ligand solution is then dispensed by 50 µL/well into the microplate and the plate is sealed. Thereafter, the microplate is allowed to stand at room temperature (25°C) for 1.5 hours. During this time, 50 mmol/L Tris-HCl (pH 7.4) is dispensed by 50 µL/well into the GF/B UniFilter plate and allowed to stand at 4°C for 1 hour or longer. Thereafter, filtration is performed with a Cell Harvester (PerkinElmer). After drying the GF/B UniFilter plate at room temperature, MicroScinti20 is dispensed by 50 µL/well into the GF/B UniFilter plate, and the plate is sealed. GF/B UniFilter plate is allowed to stand at room temperature overnight. The radioactivity of [^3H]-Ketanserin bound to the 5-HT2A receptor is measured using Microbeta2 (PerkinElmer) at a measurement time of 1 min/well. Non-specific binding is calculated from the radioactivity of [^3H]-Ketanserin in the presence of 500 µmol/L Serotonin HCl of unlabeled ligand, and total binding is calculated from the radioactivity of [^3H]-Ketanserin in the absence of the compound of the present invention (Vehicle). Finally, the Ki value is calculated from the dose-response curve.
(The binding activity of the compound according to the present invention is calculated from the following binding inhibition rate (%).) Inhibition rate (%) = [1−(c−a)/(b−a)] × 100 [formula] • a; average cpm of non-specific binding • b; average cpm of total binding • c; cpm in the presence of the test compound
The compounds of the present invention were tested essentially as described above.

Structure (SMILES)	CYP3A4 (MDZ) MBI (shifted IC: IC of preincubation at 0 minutes/ IC of preincubation at 30 minutes) [1]	also measured
COCc1nc(C)c(-c2cc(Nc3ncc(OC(F)(F)F)cc3Cl)ncc2OCCO)c(C)n1 [Compound I-200]	Negative (When a shifted IC is 1.0 or less, this is defined as negative)	–
Cn1ncc(Br)c1-c1cc(Nc2ncc(C(F)(F)F)cc2F)ccc1OCCO [Compound I-006]	–	Ki [2]: 0.317 nM
Cn1ncc(F)c1-c1cc(Nc2ncc(C(F)(F)F)cc2F)cnc1OCCO [Compound I-127]	Negative (When a shifted IC is 1.0 or less, this is defined as negative)	–
COCc1nc(C)c(-c2nc(Nc3ccc(C(F)(F)F)c(C)n3)c(F)cc2OCCO)c(C)n1 [Compound I-247]	Negative (When a shifted IC is 1.0 or less, this is defined as negative)	–
Cc1cnn(C)c1-c1cc(Nc2ncc(C(F)(F)F)cc2F)ccc1OCCO [Compound I-008]	–	Ki ([2]; [3H]-Ketanserin, non-specific binding with 500 µmol/L Serotonin HCl, room temperature (25°C), 1.5 hours, read-out: h 5-HT2A Ki): 0.344 nM
Cc1nc(CO[C@@H]2CCOC2)nc(C)c1-c1cc(Nc2ncc(C(F)(F)F)cc2Cl)ncc1OCCO [Compound I-378]	Negative (When a shifted IC is 1.0 or less, this is defined as negative)	–
Cc1nc(COC2COC2)nc(C)c1-c1cc(Nc2ncc(C(F)(F)F)cc2Cl)ncc1OCCO [Compound I-376]	Negative (When a shifted IC is 1.0 or less, this is defined as negative)	–

Source: patent EP4631938A1, “NITROGEN-CONTAINING HETEROCYCLE WITH SEROTONIN RECEPTOR-BINDING ACTIVITY AND CARBOCYCLIC DERIVATIVE” (Shionogi & Co., Ltd, priority 2022, dated 2024)
